Results as given in US20100016275A1, “NOVEL COMPOUND 395” (priority 2008, published 2010).

Columns and labels:
[1] = tested on: human hepatocytes; assay: Human hepatic intrinsic clearance (CLint) assay in human hepatocytes; type: in vitro ADME; details: human hepatocytes, protein free suspension buffer, pH 7.4, 37° C.
Text: The hepatic metabolic component of human clearance is predicted from scaled in vitro intrinsic clearance (CLint) data from human hepatocytes (see Chem Biol Interact. 2007, 168(1), 2-15) and from the extent of human blood binding, primarily due to plasma protein binding. The well stirred model of the liver is a model for predicting blood clearance in the liver from intrinsic clearance (CLint) determined using hepatocytes. (see Drug Metab Dispos. 2005, 33(9), 1304-11) The model is usually written as:
Human Hepatic Intrinsic Clearance (CLint) Assay
For the majority of drugs, a large component of their plasma clearance is contributed by hepatic metabolism. Intrinsic clearance (CLint) is a measure of the potential of a compound to undergo metabolism and can be related to hepatic clearance in vivo from a consideration of plasma protein binding and liver blood flow. Therefore, CLint may be used as an index of the relative metabolic stability of compounds within a project and compared with other external probe substrates. Furthermore, the measurement of CLint in vitro within a research project, where hepatic metabolic clearance is known to be an issue, may be a useful means of understanding the different pharmacokinetic behaviour of the compounds in vivo.
This following description outlines a method for estimating intrinsic clearance (CLint) from human hepatocyte incubations using suspension buffer containing no HSA (human serum albumin) and maintaining physiological conditions of pH 7.4.
Hepatocytes were prepared by a two-step in situ collagenase perfusion method of a portion of the human liver, suspended in protein free buffer (see below) and stored on ice, prior to incubation.
This method is based on the procedure of Seglen (Preparation of rat liver cells. I. Effect of Ca^2+ on enzymatic dispersion of isolated, perfused liver. Exptl. Cell Res., 1972, 74, p450 and preparation of isolated rat liver cells. Methods Cell Biol., 1976, 13, p 29) which itself was developed from the one step procedure of Berry and Friend (High-yield preparation of isolated rat liver parenchymal cells. J. Cell Biol., 1969, 43, p 506).
Suspension medium: 2.34 g Na HEPES, 2.0 g HSA fraction V, 0.4 g D-fructose, DMEM (1 L powder equivalent, Sigma; w/1 g.1^−1 glucose, w/Na pyruvate, w/o NaHCO3, w/o phenol red), made up to 1 L with Milli-Q water, pH to 7.4 with 1 M HCl. (Protein free suspension buffer is made omitting the 2.0 g HSA fraction V)
The capsule of a liver which has been perfused with digestion medium was cut open and the cells gently teased out into the medium. The cells were then passed through a mesh (approximately 250 μM) into a beaker containing 50 ml suspension medium. The mesh was rinsed through into the beaker with further suspension buffer to a final volume of 100 ml. The suspension was divided between two plastic 50 mL centrifuge tubes (pre-cooled on ice) and centrifuged at 50×g for 2 min at 4° C. The supernatants were decanted and the pellets re-suspended in protein free suspension buffer to the original volume. The centrifugation step was repeated and each pellet re-suspended in approximately 10 ml protein free suspension buffer. The suspensions were combined and the volume made up to 50 mL with protein free suspension buffer.
An aliquot of cell suspension (0.2 mL) was diluted with 0.2 ml protein free suspension buffer. To the diluted cells was added 0.2 mL trypan blue solution (0.4% w/v) followed by gentle mixing. After 1 min, a pasteur pipette was used to withdraw a sample and fill an Improved Neubauer Counting Chamber by capillary action. The cells were then counted (central square only) using an inverted microscope, viable cells being able to exclude the dye and non-viable cells being stained. The percentage of viable cells in the preparation was calculated thus: […]

SMILES	melting point [°C]	Human hepatocyte Intrinsic-clearance assay CLint [1] [μL/min/10^6 cells]
C[C@@H](Nc1cc(NS(=O)(=O)N2CCC2)nc(SCc2cccc(F)c2F)n1)[C@@H](O)CO [Example 1, N-(2-[(2,3-difluorobenzyl)thio]-6-{[(1R,2R)-2,3-dihydroxy-1-methylpropyl]amino}pyrimidin-4-yl)azetidine-1-sulfonamide]	116 to 116.5	
Cc1ccc(CSc2nc(N[C@H](C)CO)cc(NS(=O)(=O)N3CCC3)n2)c(F)c1C [Example 42]		17
